Data published in PubChem BioAssay AID248 (DTP/NCI, 2004).
Several values for one entry are separate records, joined by “and”; a condition that tells them apart may be missing. Identical values can stand only once. Toxic doses and inconclusive results are not listed. Cut-off read from the data, not from the text of the source: active = T/C of 150% or more; inactive = T/C below 125%.

Tested on: L1210 leukemia ip in BDF1 mice, survival T/C
Experiment: NCI In Vivo Anticancer Drug Screen. Data for tumor model L1210 Leukemia (intraperitoneal) in B6D2F1 (BDF1) mice
Conditions: endpoint: mean survival time, higher = longer survival
In short: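 Ratio derived from survival: compound-dosed mice over vehicle-dosed mice, all bearing a transplantable tumor.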

[1] = dose: 50.0 mg/kg/injection, schedule: Q01DX009 (ip), vehicle: saline with Tween-80
[2] = dose: 100.0 mg/kg/injection, schedule: Q01DX009 (ip), vehicle: saline with Tween-80
[3] = dose: 100.0 mg/kg/injection, schedule: Q04DX003 (ip), vehicle: saline with Tween-80
[4] = dose: 200.0 mg/kg/injection, schedule: Q01DX009 (ip), vehicle: saline with Tween-80
[5] = dose: 200.0 mg/kg/injection, schedule: Q04DX003 (ip), vehicle: saline with Tween-80
[6] = dose: 100.0 mg/kg/injection, schedule: Q01DX001 (ip), vehicle: saline
[7] = dose: 200.0 mg/kg/injection, schedule: Q01DX001 (ip), vehicle: saline
[8] = dose: 100.0 mg/kg/injection, schedule: Q01DX001 (ip), vehicle: Klucel (hydroxypropylcellulose) (HPC)
[9] = dose: 100.0 mg/kg/injection, schedule: Q01DX009 (ip), vehicle: Klucel (hydroxypropylcellulose) (HPC)
[10] = dose: 100.0 mg/kg/injection, schedule: Q04DX003 (ip), vehicle: Klucel (hydroxypropylcellulose) (HPC)
[11] = dose: 200.0 mg/kg/injection, schedule: Q01DX001 (ip), vehicle: Klucel (hydroxypropylcellulose) (HPC)
[12] = dose: 200.0 mg/kg/injection, schedule: Q01DX009 (ip), vehicle: Klucel (hydroxypropylcellulose) (HPC)
[13] = dose: 200.0 mg/kg/injection, schedule: Q04DX003 (ip), vehicle: Klucel (hydroxypropylcellulose) (HPC)
[14] = dose: 400.0 mg/kg/injection, schedule: Q01DX009 (ip), vehicle: Klucel (hydroxypropylcellulose) (HPC)
[15] = dose: 400.0 mg/kg/injection, schedule: Q04DX003 (ip), vehicle: Klucel (hydroxypropylcellulose) (HPC)
[16] = dose: 12.5 mg/kg/injection, schedule: Q04DX003 (ip), vehicle: saline
[17] = dose: 25.0 mg/kg/injection, schedule: Q04DX003 (ip), vehicle: saline

Measured: T/C

Cc1cc(C)c(C(Cl)(Cl)Cl)c(C)c1Cl
inactive: dose: 22.0 mg/kg/injection, schedule: Q01DX009 (ip), vehicle: saline with Tween-80 119 % of control | dose: 33.0 mg/kg/injection, schedule: Q01DX009 (ip), vehicle: Klucel (hydroxypropylcellulose) (HPC) 113 % of control | dose: 33.0 mg/kg/injection, schedule: Q01DX009 (ip), vehicle: saline with Tween-80 112 % of control | dose: 50.0 mg/kg/injection, schedule: Q01DX009 (ip), vehicle: Klucel (hydroxypropylcellulose) (HPC) 100 % of control | [1] 118 % of control | dose: 75.0 mg/kg/injection, schedule: Q01DX009 (ip), vehicle: Klucel (hydroxypropylcellulose) (HPC) 107 % of control | dose: 75.0 mg/kg/injection, schedule: Q01DX009 (ip), vehicle: saline with Tween-80 113 % of control | dose: 100.0 mg/kg/injection, schedule: Q01DX001 (ip), vehicle: carboxymethylcellulose (CMC) 121 % of control | [2] 121 % of control | [3] 120 % of control | dose: 200.0 mg/kg/injection, schedule: Q01DX001 (ip), vehicle: carboxymethylcellulose (CMC) 118 % of control | [4] 103 % of control | [5] 108 % of control | dose: 400.0 mg/kg/injection, schedule: Q01DX001 (ip), vehicle: carboxymethylcellulose (CMC) 121 % of control

Clc1ccc2c(CBr)ccnc2c1
inactive: [6] 98 % of control | [7] 104 % of control

CC(=O)OC12CCCC(=O)C1C1CC/C=C\CCC12 (centres undefined)
inactive: [8] 111 % of control | [9] 98 % of control | [10] 95 % of control | [11] 108 % of control | [12] 98 % of control | [13] 98 % of control | dose: 400.0 mg/kg/injection, schedule: Q01DX001 (ip), vehicle: Klucel (hydroxypropylcellulose) (HPC) 102 % of control | [14] 96 % of control | [15] 95 % of control

CCCCCc1ccc(/C(C)=N/NC(=O)c2ccc[n+](C)c2)cc1
inactive: dose: 6.25 mg/kg/injection, schedule: Q04DX003 (ip), vehicle: saline 101 % of control | [16] 95 % of control | dose: 25.0 mg/kg/injection, schedule: Q04DX003 (ip), vehicle: saline with Tween-80 98 % of control | [17] 95 % of control

CC(CCO)CCC1OC1(C)C (centres undefined)
inactive: [6] 103 % of control | [7] 105 % of control | dose: 400.0 mg/kg/injection, schedule: Q01DX001 (ip), vehicle: saline 103 % of control

Cc1cc([N+](=O)[O-])c([N+](=O)[O-])cc1Cl
inactive: [1] 115 % of control | [8] 105 % of control | [2] 115 % of control | [11] 115 % of control | [4] 109 % of control

CCN(CC)C(=O)N1C2CCC1CN(C)C2
inactive: dose: 12.5 mg/kg/injection, schedule: Q01DX009 (ip), vehicle: saline 91 % of control | [16] 103 % of control | dose: 25.0 mg/kg/injection, schedule: Q01DX009 (ip), vehicle: saline 95 % of control | [17] 105 % of control | dose: 50.0 mg/kg/injection, schedule: Q01DX009 (ip), vehicle: saline 86 % of control | dose: 50.0 mg/kg/injection, schedule: Q04DX003 (ip), vehicle: saline 89 % of control

CCN(CCCl)CCCNc1c2ccc(Cl)cc2nc2ccc(OC)nc12
inactive: dose: 1.5 mg/kg/injection, schedule: Q01DX009 (ip), vehicle: saline 119 % of control | dose: 6.0 mg/kg/injection, schedule: Q01DX009 (ip), vehicle: saline 91 % of control

O=C1C[C@H]2CCCC[C@@H]2O1
inactive: dose: 75.0 mg/kg/injection, schedule: Q01DX001 (ip), vehicle: other 107 % of control | dose: 150.0 mg/kg/injection, schedule: Q01DX001 (ip), vehicle: other 105 % of control | dose: 300.0 mg/kg/injection, schedule: Q01DX001 (ip), vehicle: other 102 % of control

CC(C)=CCC/C(C)=C\COc1cccc(C)c1
inactive: dose: 100.0 mg/kg/injection, schedule: Q04DX002 (ip), vehicle: saline with Tween-80 100 % of control | dose: 200.0 mg/kg/injection, schedule: Q04DX002 (ip), vehicle: saline with Tween-80 96 % of control | dose: 400.0 mg/kg/injection, schedule: Q04DX002 (ip), vehicle: saline with Tween-80 96 % of control

CC1(C)CC2(CC(C)(C)c3cc(O)c(O)cc32)c2cc(O)c(O)cc21
inactive: [9] 95 % of control | [10] 100 % of control | [12] 100 % of control | [13] 105 % of control | [14] 104 % of control | [15] 102 % of control

COc1cc(C(=O)O)c2c(c1C)OC(=O)c1c(C)cc(O)c(C=O)c1O2
inactive: dose: 8.0 mg/kg/injection, schedule: Q01DX Z (ip), vehicle: saline 91 % of control | dose: 16.0 mg/kg/injection, schedule: Q01DX Z (ip), vehicle: saline 102 % of control | dose: 32.0 mg/kg/injection, schedule: Q01DX Z (ip), vehicle: saline 100 % of control | dose: 40.0 mg/kg/injection, schedule: Q04DX003 (ip), vehicle: Klucel (hydroxypropylcellulose) (HPC) 97 % of control | dose: 64.0 mg/kg/injection, schedule: Q01DX Z (ip), vehicle: saline 111 % of control | dose: 80.0 mg/kg/injection, schedule: Q04DX003 (ip), vehicle: Klucel (hydroxypropylcellulose) (HPC) 107 % of control | dose: 160.0 mg/kg/injection, schedule: Q04DX003 (ip), vehicle: Klucel (hydroxypropylcellulose) (HPC) 107 % of control

NC(=O)c1nc(-c2ccccc2)c(-c2ccccc2)[nH]c1=O
inactive: [2] 104 % of control | [4] 95 % of control | dose: 400.0 mg/kg/injection, schedule: Q01DX009 (ip), vehicle: saline with Tween-80 96 % of control

Oc1ccc(Nc2cc(/C=C/c3ccc(Cl)cc3)nc(/C=C/c3ccc(Cl)cc3)n2)cc1CN1CCCC1
inactive: dose: 50.0 mg/kg/injection, schedule: Q01DX001 (ip), vehicle: saline 89 % of control | dose: 50.0 mg/kg/injection, schedule: Q04DX003 (ip), vehicle: Klucel (hydroxypropylcellulose) (HPC) 104 % of control | [6] 93 % of control | [10] 95 % of control | [7] 91 % of control | [13] 98 % of control

O=C(CBr)N1CCC2(CC1)SSC1(CCN(C(=O)CBr)CC1)S2
inactive: [1] 96 % of control | [2] 91 % of control | [3] 102 % of control | [5] 105 % of control

C=CS(=O)(=O)CCCCCCCC
inactive: dose: 75.0 mg/kg/injection, schedule: Q01DX001 (ip), vehicle: saline 97 % of control | dose: 75.0 mg/kg/injection, schedule: Q04DX003 (ip), vehicle: other 92 % of control | dose: 150.0 mg/kg/injection, schedule: Q01DX001 (ip), vehicle: saline 89 % of control | dose: 150.0 mg/kg/injection, schedule: Q04DX003 (ip), vehicle: other 100 % of control | dose: 300.0 mg/kg/injection, schedule: Q01DX001 (ip), vehicle: saline 91 % of control | dose: 300.0 mg/kg/injection, schedule: Q04DX003 (ip), vehicle: other 89 % of control

O=C(COc1cc(Cl)c(Cl)cc1Cl)Nc1ccccc1
inactive: dose: 100.0 mg/kg/injection, schedule: Q04DX002 (ip), vehicle: saline 92 % of control | dose: 200.0 mg/kg/injection, schedule: Q04DX002 (ip), vehicle: saline 100 % of control | dose: 400.0 mg/kg/injection, schedule: Q04DX002 (ip), vehicle: saline 103 % of control

Cc1ccc(S(=O)(=O)Nc2ncc([N+](=O)[O-])s2)cc1
inactive: dose: 12.5 mg/kg/injection, schedule: Q01DX009 (ip), vehicle: saline with Tween-80 101 % of control | dose: 25.0 mg/kg/injection, schedule: Q01DX009 (ip), vehicle: saline with Tween-80 101 % of control | [1] 98 % of control and 90 % of control

CCCCN(C)N=Nc1ccccc1C(=O)O
inactive: dose: 6.25 mg/kg/injection, schedule: Q01DX009 (ip), vehicle: other 100 % of control | dose: 12.5 mg/kg/injection, schedule: Q01DX009 (ip), vehicle: other 103 % of control | dose: 25.0 mg/kg/injection, schedule: Q01DX009 (ip), vehicle: other 108 % of control | dose: 50.0 mg/kg/injection, schedule: Q01DX009 (ip), vehicle: other 110 % of control | dose: 100.0 mg/kg/injection, schedule: Q01DX009 (ip), vehicle: other 123 % of control
